Reference: patent US10030027B2, “Soluble guanylate cyclase stimulators” (MERCK SHARP & DOHME CORP., priority 2015, dated 2018)

Biological target: sGC α1/β1 heterodimer (Homo sapiens (Human), UniProt Q02108+Q02153)
Assay: Cell-based sGC functional assay (cyclic GMP assay for sGC activator: CASA assay)
Set-up: % Activation: concentration or dose not given beside the values
Details: CHO-K1/sGC cells; for EC50: inflection point, 4P fit, read-out: IP; for Emax: CHO-K1, activity expressed as percentage of compound A (standard), read-out: % Activation
Description: Cell-Based sGC Functional Assay (Cyclic GMP Assay for sGC Activator: CASA Assay)
Soluble guanylate cyclase (sGC) is a heme-containing enzyme that converts GTP to secondary messenger cGMP. Increases in cGMP levels affect several physiological processes including vasorelaxation through multiple downstream pathways. […] Heme-dependent activators (HDAs) preferentially activate sGC containing a ferrous heme group. To determine the effect of sGC activators on enzyme activity, the CASA assay was developed to monitor the generation of cGMP in a cell line that stably expresses the heterodimeric sGC protein.
A CHO-K1 cell line stably expressing the sGC α1/β1 heterodimer was generated using a standard transfection protocol. CHO-K1 cells were transfected with plasmids pIREShyghsGCα1 and pIRESneo-hsGCβ1 simultaneously using FUGENE reagent. Clones that stably express both subunits were selected with hygromycin and neomycin for ˜2 weeks. Clone #7 was chosen for the assay and was designated CHO-K1/sGC. CHO-K1/sGC cells were maintained in F-K12 medium containing 10% heat-inactivated Fetal Bovine Serum (FBS), 100 μg/mL penicillin/streptomycin, 0.5 mg/mL hygromycin and 0.25 mg/mL G418. The cells were then cryopreserved in LN2. On the day of the assay, the cells were thawed and resuspended in EBSS Assay Buffer (Sigma, E3024) supplemented with 5 mM MgCl2, 10 mM HEPES (4-(2-hydroxyethyl)piperazine-1-ethanesulfonic acid) and 0.05% BSA (bovine serum albumin) (EAB) and cell density was then adjusted to 2.25×10^5/mL with EAB. IBMX (3-isobutyl-1-methylxanthin, 0.5 mM) was added to inhibit degradation of cGMP. Compounds were diluted from DMSO stock solutions and added to the assay at a final DMSO concentration of 2.5%. Cells were pre-incubated in the presence and absence of 1 μM of Diethylenetriamine/nitric oxide adduct (DETA-NO; Sigma, 17018) for 30 min at 25° C. Compounds are subsequently added and incubated for 1 hr at 37° C. At the end of the incubation period, the reaction was terminated and the cells were lysed with the detection reagents from Cisbio Kits. The level of intracellular cGMP was determined using an HTRF-based assay kit (CisBio, 62GM2PEC), which detects the displacement of a fluorescence labeled cGMP from its specific antibody. The cGMP produced by test compounds was directly compared to the maximum cGMP production (this value was set to equal 100% activation.) of the published sGC-HDA compound A:
(Example 1 in WO 2010/065275, published Jun. 10, 2010). The test compounds' activity were then expressed as a percentage of compound A, the standard in every experiment. This percent activation was calculated either in the presence or absence of DETA-NO which was then plotted. Inflection points (IP) and maximum fold induction was derived using Abase analysis software for 4P fit.

Chain of sGC α1/β1 heterodimer (Q02108 whole entry): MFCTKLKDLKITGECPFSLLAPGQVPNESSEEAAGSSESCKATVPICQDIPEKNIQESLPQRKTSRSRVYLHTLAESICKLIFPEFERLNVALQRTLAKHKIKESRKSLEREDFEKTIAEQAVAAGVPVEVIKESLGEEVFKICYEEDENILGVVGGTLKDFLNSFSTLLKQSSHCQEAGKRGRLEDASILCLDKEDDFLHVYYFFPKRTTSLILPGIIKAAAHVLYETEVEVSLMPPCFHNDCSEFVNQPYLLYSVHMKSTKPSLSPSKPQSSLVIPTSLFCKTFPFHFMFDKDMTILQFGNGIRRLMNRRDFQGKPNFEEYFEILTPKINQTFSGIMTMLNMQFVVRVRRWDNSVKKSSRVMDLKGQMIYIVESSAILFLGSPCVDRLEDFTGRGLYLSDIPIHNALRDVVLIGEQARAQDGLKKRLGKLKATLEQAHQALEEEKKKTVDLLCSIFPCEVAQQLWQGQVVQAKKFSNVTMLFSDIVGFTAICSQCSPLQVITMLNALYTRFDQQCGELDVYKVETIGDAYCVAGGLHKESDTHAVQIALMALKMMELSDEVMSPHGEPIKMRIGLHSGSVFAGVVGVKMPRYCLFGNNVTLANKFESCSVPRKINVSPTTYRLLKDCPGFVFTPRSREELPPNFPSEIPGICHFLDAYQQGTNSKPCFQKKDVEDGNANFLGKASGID
Chain of sGC α1/β1 heterodimer (Q02153 whole entry): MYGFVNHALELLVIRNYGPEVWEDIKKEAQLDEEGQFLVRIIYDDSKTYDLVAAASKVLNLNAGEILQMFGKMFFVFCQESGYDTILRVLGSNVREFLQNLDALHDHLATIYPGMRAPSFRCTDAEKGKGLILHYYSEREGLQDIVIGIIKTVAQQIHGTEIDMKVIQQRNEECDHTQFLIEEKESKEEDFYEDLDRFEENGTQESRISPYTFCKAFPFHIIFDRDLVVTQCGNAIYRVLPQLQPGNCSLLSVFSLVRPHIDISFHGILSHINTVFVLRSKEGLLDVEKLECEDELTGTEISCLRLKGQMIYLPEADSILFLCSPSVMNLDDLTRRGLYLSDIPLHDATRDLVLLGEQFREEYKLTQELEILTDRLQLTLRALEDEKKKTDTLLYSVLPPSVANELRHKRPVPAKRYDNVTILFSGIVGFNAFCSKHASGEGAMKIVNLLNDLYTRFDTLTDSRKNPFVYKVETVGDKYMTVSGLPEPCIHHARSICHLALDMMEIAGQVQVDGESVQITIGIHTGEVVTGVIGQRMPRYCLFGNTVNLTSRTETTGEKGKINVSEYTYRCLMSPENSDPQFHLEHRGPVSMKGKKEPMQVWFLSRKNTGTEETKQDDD

| SMILES | % Activation (activity expressed as percentage of compound A (standard)) [%] | EC50 [nM] | Emax [%] |
| --- | --- | --- | --- |
| CC1CCC(Cn2nc(-c3nc(N)c4c(n3)NC(=O)C4(C)c3nc(CC(C)(C)C(=O)O)co3)c3ccc(F)cc32)CC1 (racemic) [Example 137AB, 3-{2-[4-amino-2-{6-fluoro-1-[4-methylcyclohexylmethyl]-1H-indazol-3-yl}-5-methyl-6-oxo-6,7-dihydro-5H-pyrrolo[2,3-d]pyrimidin-5-yl]-1,3-oxazol-4-yl}-2,2-dimethylpropanoic acid] | 98.4 | – | – |
| CC1(c2nn(C(C)(C)C(=O)O)c(=O)o2)C(=O)Nc2nc(-c3nn(CCC(F)(F)C(F)(F)F)c4cc(Cl)ccc34)nc(N)c21 (single isomer, unassigned) [Example 99B, 2-[5-{4-Amino-2-[6-chloro-1-(3,3,4,4,4-pentafluorobutyl)-1H-indazol-3-yl]-5-methyl-6-oxo-6,7-dihydro-5H-pyrrolo[2,3-d]pyrimidin-5-yl}-2-oxo-1,3,4-oxadiazol-3(2H)-yl]-2-methylpropanoic acid] | – | 186 | – |
| CC1(c2cccc(CCC(=O)O)c2)C(=O)Nc2nc(-c3nn(Cc4ccccc4F)c4ncc(F)cc34)nc(N)c21 (stereo not shown) [Example 24A, 3-(3-{4-amino-2-[5-fluoro-1-(2-fluorobenzyl)-1H-pyrazolo[3,4-b]pyridin-3-yl]-5-methyl-6-oxo-6,7-dihydro-5H-pyrrolo[2,3-d]pyrimidin-5-yl}phenyl)propanoic acid] | – | 210 | 106 |
| CC1(c2cn(CCC(=O)O)nn2)C(=O)Nc2nc(-c3nn(CCC(F)(F)C(F)(F)F)c4cc(Cl)ccc34)nc(N)c21 (stereo not shown) [Example 29B, 3-(4-{4-amino-2-[6-chloro-1-(3,3,4,4,4-pentafluorobutyl)-1H-indazol-3-yl]-5-methyl-6-oxo-6,7-dihydro-5H-pyrrolo[2,3-d]pyrimidin-5-yl}-1H-1,2,3-triazol-1-yl)propanoic acid] | – | – | 82 |
| CC1(c2nc(CCCC(=O)O)cs2)C(=O)Nc2nc(-c3nn(Cc4ccccc4F)c4cc(Cl)ccc34)nc(N)c21 (stereo not shown) [Example 49A, 4-(2-{4-amino-2-(6-chloro-1-(2-fluorobenzyl)-1H-indazol-3-yl)-5-methyl-6-oxo-6,7-dihydro-5H-pyrrolo[2,3-d]pyrimidin-5-yl}thiazol-4-yl)butanoic acid] | – | 119 | 91 |
| CC1(c2cccc(CCC(=O)O)c2)C(=O)Nc2nc(-c3nn(Cc4ccccc4F)c4ccccc34)nc(N)c21 (stereo not shown) [Example 53A, 3-(3-{4-amino-2-[1-(2-fluorobenzyl)-1H-indazol-3-yl]-5-methyl-6-oxo-6,7-dihydro-5H-pyrrolo[2,3-d]pyrimidin-5-yl}phenyl)propanoic acid] | – | 124 | 102 |
| CC1(c2nc(CCC(=O)O)co2)C(=O)Nc2nc(-c3nn(Cc4ccccc4F)c4ccccc34)nc(N)c21 (stereo not shown) [Example 54A, 3-(2-{4-amino-2-[1-(2-fluorobenzyl)-1H-indazol-3-yl]-5-methyl-6-oxo-6,7-dihydro-5H-pyrrolo[2,3-d]pyrimidin-5-yl}oxazol-4-yl)propanoic acid] | – | 490 | 106 |
| CC1(c2nc(CCCC(=O)O)cs2)C(=O)Nc2nc(-c3nn(Cc4ccccc4F)c4ccccc34)nc(N)c21 (stereo not shown) [Example 55A, 4-(2-{4-amino-2-[1-(2-fluorobenzyl)-1H-indazol-3-yl]-5-methyl-6-oxo-6,7-dihydro-5H-pyrrolo[2,3-d]pyrimidin-5-yl}thiazol-4-yl)butanoic acid] | – | 432 | 105 |
| CC(C)(Cc1coc(C2(C)C(=O)Nc3nc(-c4nn(Cc5ccccc5F)c5ccccc45)nc(N)c32)n1)C(=O)O (stereo not shown) [Example 56A, 3-(2-{4-amino-2-[1-(2-fluorobenzyl)-1H-indazol-3-yl]-5-methyl-6-oxo-6,7-dihydro-5H-pyrrolo[2,3-d]pyrimidin-5-yl}oxazol-4-yl)-2,2-dimethylpropanoic acid] | – | 134 | 116 |
| C[C@@]1(c2ccc(CCC(=O)O)cc2)C(=O)Nc2nc(-c3nn(Cc4ccc(F)cc4)c4cc(Cl)ccc34)nc(N)c21 [Example 65B, (S)-3-(4-{4-amino-2-[6-chloro-1-(4-fluorobenzyl)-1H-indazol-3-yl]-5-methyl-6-oxo-6,7-dihydro-5H-pyrrolo[2,3-d]pyrimidin-5-yl}phenyl)propanoic acid] | – | 1100 | 136 |
| C[C@@]1(c2ccc(CCC(=O)O)cc2)C(=O)Nc2nc(-c3nn(Cc4ccccc4F)c4ccc(F)cc34)nc(N)c21 [Example 71B, (S)-3-(4-{4-amino-2-[5-fluoro-1-(2-fluorobenzyl)-1H-indazol-3-yl]-5-methyl-6-oxo-6,7-dihydro-5H-pyrrolo[2,3-d]pyrimidin-5-yl}phenyl)propanoic acid] | – | 73 | 78 |
| CC1(c2nc(CC(=O)O)cs2)C(=O)Nc2nc(-c3nn(CCC(F)(F)C(F)(F)F)c4ncccc34)nc(N)c21 (stereo not shown) [Example 78A, (2-{4-Amino-5-methyl-6-oxo-2-[1-(3,3,4,4,4-pentafluorobutyl)-1H-pyrazolo[3,4-b]pyridin-3-yl]-6,7-dihydro-5H-pyrrolo[2,3-d]pyrimidin-5-yl}-1,3-thiazol-4-yl)acetic acid] | – | – | 93 |

Further compounds by falling EC50, results first:

| % Activation (activity expressed as percentage of compound A (standard)) [%] | EC50 [nM] | Emax [%] | SMILES |
| --- | --- | --- | --- |
| – | 1360 | 129 | CC(C)(Cc1ccc(C2(C)C(=O)Nc3nc(-c4nn(CCC(F)(F)C(F)(F)F)c5ncccc45)nc(N)c32)nc1)C(=O)O (stereo not shown) [Example 8B, 3-(6-{4-amino-5-methyl-6-oxo-2-[1-(3,3,4,4,4-pentafluoro-butyl)-1H-pyrazolo[3,4-b]pyridin-3-yl]-6,7-dihydro-5H-pyrrolo[2,3-d]pyrimidin-5-yl}pyridin-3-yl)-2,2-dimethyl-propanoic acid] |
| – | 407 | 98 | CC1(c2nc(CCC(=O)O)co2)C(=O)Nc2nc(-c3nn(Cc4ccccc4F)c4cc(Cl)ccc34)nc(N)c21 (stereo not shown) [Example 50A, 3-(2-{4-amino-2-(6-chloro-1-(2-fluorobenzyl)-1H-indazol-3-yl)-5-methyl-6-oxo-6,7-dihydro-5H-pyrrolo[2,3-d]pyrimidin-5-yl}oxazol-4-yl)propanoic acid] |
| – | 257 | 102 | CC1(c2cccc(CCC(=O)O)c2)C(=O)Nc2nc(-c3nn(Cc4ccccc4F)c4cc(Cl)ccc34)nc(N)c21 (stereo not shown) [Example 48A, 3-(3-{4-amino-2-(6-chloro-1-(2-fluorobenzyl)-1H-indazol-3-yl)-5-methyl-6-oxo-6,7-dihydro-5H-pyrrolo[2,3-d]pyrimidin-5-yl}phenyl)propanoic acid] |
| – | 238 | 155 | Cc1ccc2c(-c3nc(N)c4c(n3)NC(=O)[C@@]4(C)c3nc(CC(C)(C)C(=O)O)cs3)nn(Cc3ccc(C)c(F)c3F)c2n1 [Example 75A, (S)-3-(2-{4-amino-2-[1-(2,3-difluoro-4-methylbenzyl)-6-methyl-1H-pyrazolo[3,4-b]pyridin-3-yl]-5-methyl-6-oxo-6,7-dihydro-5H-pyrrolo[2,3-d]pyrimidin-5-yl}thiazol-4-yl)-2,2-dimethylpropanoic acid] |
| – | 85 | 87 | C[C@@]1(c2ccc(CCC(=O)O)cc2)C(=O)Nc2nc(-c3nn(Cc4ccccc4F)c4ccc(Cl)cc34)nc(N)c21 [Example 73B, (S)-3-(4-{4-amino-2-[5-chloro-1-(2-fluorobenzyl)-1H-indazol-3-yl]-5-methyl-6-oxo-6,7-dihydro-5H-pyrrolo[2,3-d]pyrimidin-5-yl}phenyl)propanoic acid] |
| – | 62 | 94 | CC(C)(Cc1coc(C2(C)C(=O)Nc3nc(-c4nn(Cc5ccccc5F)c5ccc(Cl)cc45)nc(N)c32)n1)C(=O)O (stereo not shown) [Example 74A, 3-(2-{4-amino-2-[5-chloro-1-(2-fluorobenzyl)-1H-indazol-3-yl]-5-methyl-6-oxo-6,7-dihydro-5H-pyrrolo[2,3-d]pyrimidin-5-yl}oxazol-4-yl)-2,2-dimethylpropanoic acid] |
| – | 42 | 80 | CC(C)(Cc1coc(C2(C)C(=O)Nc3nc(-c4nn(Cc5ccccc5F)c5ccc(F)cc45)nc(N)c32)n1)C(=O)O (stereo not shown) [Example 72A, 3-(2-{4-amino-2-[5-fluoro-1-(2-fluorobenzyl)-1H-indazol-3-yl]-5-methyl-6-oxo-6,7-dihydro-5H-pyrrolo[2,3-d]pyrimidin-5-yl}oxazol-4-yl)-2,2-dimethylpropanoic acid] |
